Literature values in patent publication US8951536B2, “N-hydroxyamidinoheterocycles as modulators of indoleamine 2,3-dioxygenase” (Incyte Corporation, priority 2005, dated 2015).

How the values were obtained:
[1] = tested on: pregnant mice (carrying syngeneic or allogeneic fetuses); details: pregnant mice exposed to 1MT; Munn et al. 1998
[2] = tested on: HeLa cells co-cultured with peripheral blood lymphocytes (PBLs); details: Logan et al. 2002
[3] = tested on: CD123-positive dendritic cells; details: mature and immature CD123-positive dendritic cells; Munn et al. 2002
tumor growth in mice = details: Muller et al. 2005
LLC tumors = LLC tumors in C57Bl/6 mice, versus placebo; Friberg et al.
P815 tumor = details: pre-immunized immune-competent mice; Uyttenhove et al.

| SMILES | rejection of allogeneic concepti [1] | reduction in PBL proliferation upon treatment with IL2 [2] | IDO suppressive activity on T-cell activity [3] | tumor growth with chemotherapeutic agents (tumor growth in mice) | formation of tumors (LLC tumors) | growth of tumors (P815 tumor) |
| --- | --- | --- | --- | --- | --- | --- |
| Cn1cc(C[C@H](N)C(=O)O)c2ccccc21 [1-methyl-tryptophan] | rapid, T cell-induced rejection of all allogeneic concept | reversed | blocked |  |  |  |
| Cn1cc(CC(N)C(=O)O)c2ccccc21 (stereo not drawn) [Example 1-MT] |  |  |  | can synergize with chemotherapeutic agents to reduce tumor growth in mice | markedly delayed | inhibited |
